Where two headings read alike, the source gives them in different places. *1 amine or outer side, *2 acyl side, *3 side chain or, on linkers, in order; H or OH if unused. Where a SMILES comes first, the peptide text is derived from it. Bridges are numbered along the chain shown (N, C = ends). [ ]: non-standard residue; d: D form. oXylylene = c1ccc(C[*:2])c(C[*:1])c1; βAla = NCCC(=O)O
Legend:
STAT1 [1] = molecular target: T1, STAT1 (Homo sapiens, UniProt P42224); test: Grating-coupled interferometry (GCI) waveRAPID kinetics, immobilised full-length STAT1; format: binding; conditions: for Kd: 20 mM HEPES pH 7.5, 300 mM NaCl, 0.01% Tween-20, 1:1 kinetic model, average of 2–4 technical replicates ± SD, SD; for kon at 0.5 µM: analyte 0.5 µM, read-out: ka
T1 construct: full-length STAT1 (Uniprot #P42224-1) was expressed in E. coli; His tag (pEXP-NHis vector) (N); made in house; host or cells: E. coli T7 Express
T1 sequence (P42224 1-750): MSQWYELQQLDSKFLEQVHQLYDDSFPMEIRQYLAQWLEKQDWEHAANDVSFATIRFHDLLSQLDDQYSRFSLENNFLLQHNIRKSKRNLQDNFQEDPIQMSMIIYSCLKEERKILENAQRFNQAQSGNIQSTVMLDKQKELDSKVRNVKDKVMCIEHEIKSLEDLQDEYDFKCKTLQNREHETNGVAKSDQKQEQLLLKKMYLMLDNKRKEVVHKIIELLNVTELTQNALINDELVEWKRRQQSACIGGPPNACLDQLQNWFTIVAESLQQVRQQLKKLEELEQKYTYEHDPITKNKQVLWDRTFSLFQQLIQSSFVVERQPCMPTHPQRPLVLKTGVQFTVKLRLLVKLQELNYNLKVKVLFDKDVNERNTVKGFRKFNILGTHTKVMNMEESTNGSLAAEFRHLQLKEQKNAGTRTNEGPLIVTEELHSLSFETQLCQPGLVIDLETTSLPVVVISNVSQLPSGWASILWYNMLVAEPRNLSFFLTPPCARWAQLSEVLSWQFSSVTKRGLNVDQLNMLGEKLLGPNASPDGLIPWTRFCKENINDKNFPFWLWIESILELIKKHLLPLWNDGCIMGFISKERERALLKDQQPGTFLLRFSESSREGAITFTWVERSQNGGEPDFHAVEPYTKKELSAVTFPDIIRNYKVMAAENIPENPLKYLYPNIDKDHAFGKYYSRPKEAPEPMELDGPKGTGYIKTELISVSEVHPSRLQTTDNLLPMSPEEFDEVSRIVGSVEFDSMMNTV
From the text: Understanding the molecular determinants of kinetic rate constants of binding (k a, k d) can aid the design of pharmacological probes with longer target engagement, which is beneficial for drug efficacy and decreased toxicity. , We characterized the binding kinetics of 018-derived macrocycles by using grating-coupled interferometry (GCI). We used waveRAPID, a regeneration-free kinetic binding assay that applies sequential analyte pulses of increasing duration onto a GCI biosensor surface with an immobilized target (Figures A, and S3,S4, Table S2).
(§1) Grating coupled interferometry (GCI)
(§2) GCI experiments were performed on a Creoptix WaveDELTA instrument (Malvern Panalytical). Full-length STAT1 or STAT3 were immobilised on a 4PCH chip (Malvern Panalytical #4PCH-03) to a density 2000-8000 pg/mm2 using EDC/NHS activation followed by amine coupling. Briefly, proteins (500 nM) were applied onto an activated chip in 10 mM MES pH 6.5, 20 mM NaCl, after which the chip surface was passivated with 1M ethanolamine, pH 8.0.
(§3) The kinetic measurements were perfor med using 20 mM HEPES pH 7.5, 300 mM NaCl, 0.01% Tween-20, 0.0005% DMSO as running buffer. Peptides were tested at 0.5 or 10 μM concentration using the waveRAPID kinetics experiment with the tight binder or intermediate binder mode, respectively.[4] Sensorgrams were fitted in the waveControl software (Malven Panalytical) using the 1:1 kinetic model. […]

STAT1 [2] = molecular target: T1, STAT1; test: Isothermal titration calorimetry (ITC) of peptide binding to STAT1
Method: To determine affinities and thermodynamic profiles of binding, we performed isothermal titration calorimetry (ITC) experiments for peptides 1, 2, 3, 4, 7, and 8 (Figures A,B and S1,S2, Table S1). […] The experiments were repeated in two different buffer systems, TBST (50 mM Tris pH 8.0, 300 mM NaCl, 0.01% Tween-20) and PBST ([…], 150 mM NaCl, 0.01% Tween-20), to account for possible buffer protonation enthalpy artifacts. […]
Isothermal titration calorimetry (ITC)
ITC experiments were performed using a PEAQ ITC instrument (Malvern Panalytical) in either TBST (50 mM Tris pH 8.0, 300 mM NaCl, 0.5 mM TCEP, 0.01% Tween -20) or PBST (10 mM sodium phosphate pH 7.4, 150 mM NaCl, 0.01% Tween -20) as reaction buffers. STAT1 protein was buffer -exchanged into reaction buffer supplemented with 2% DMSO on a NAP -5 deslating column (Cytiv a #17085301) and its concentration was adjusted to 10 or 20 μM.
Peptides were diluted in reaction buffer from DMSO stocks to a matching 2% DMSO concentration. Peptide concentrations were adjusted to approximately 100-200 μM. ITC experiments were performed with STAT1 in the cell and peptides in the syringe at 25°C, with 750 RPM stirring, DP = 4 μcal/sec. 18 injections of 2 μl were performed over a 50 min titration.
Thermogram integra tion and isotherm fitting were performed using the PEAQ ITC analysis software (Malvern Panalytical ). Isotherms were fitted using a 1:1 binding model. Due to challenges in determining peptide concentrations with high accuracy , protein concentrations and stoichiometry (N=1.0) were kept constant during isotherm fitting, whereas peptide concentrations were allowed to vary. Fixing a single reactant concentration during fitting is acceptable given the sufficiently high C -values and isotherm curvature observed in the […]
Offset subtraction was implemented to remove injection heats.

STAT1 [3] = molecular target: T1, STAT1; test: Fluorescence polarization competition assay with fluorescein-labelled pIFNGR1 docking site peptide probe; format: binding; conditions: 10 nM fluorescein pIFNGR1 probe, STAT1 1.5 μM, 20 mM Tris pH 8.0, 300 mM NaCl, 0.1% Tween-20, 0.5 mM TCEP, 2.5% DMSO, room temperature; four parameter logistic fit; read-out: IC50 (FP competition, pIFNGR1 probe displacement)
STAT3 = molecular target: T2, STAT3 (Homo sapiens, UniProt P40763); test: biochemical; format: binding
T2 construct: STAT3: the gene encoding full-length STAT3 was codon optimised for expression in; MBP (pEXP-MBP vector) (cleaved yes); His tag (IMAC capture, removed with the fusion by TEV and reverse IMAC) (cleaved yes); made in house; host or cells: E. coli T7 Express
T2 sequence (P40763 whole entry, species assumed, the tested form may be a part): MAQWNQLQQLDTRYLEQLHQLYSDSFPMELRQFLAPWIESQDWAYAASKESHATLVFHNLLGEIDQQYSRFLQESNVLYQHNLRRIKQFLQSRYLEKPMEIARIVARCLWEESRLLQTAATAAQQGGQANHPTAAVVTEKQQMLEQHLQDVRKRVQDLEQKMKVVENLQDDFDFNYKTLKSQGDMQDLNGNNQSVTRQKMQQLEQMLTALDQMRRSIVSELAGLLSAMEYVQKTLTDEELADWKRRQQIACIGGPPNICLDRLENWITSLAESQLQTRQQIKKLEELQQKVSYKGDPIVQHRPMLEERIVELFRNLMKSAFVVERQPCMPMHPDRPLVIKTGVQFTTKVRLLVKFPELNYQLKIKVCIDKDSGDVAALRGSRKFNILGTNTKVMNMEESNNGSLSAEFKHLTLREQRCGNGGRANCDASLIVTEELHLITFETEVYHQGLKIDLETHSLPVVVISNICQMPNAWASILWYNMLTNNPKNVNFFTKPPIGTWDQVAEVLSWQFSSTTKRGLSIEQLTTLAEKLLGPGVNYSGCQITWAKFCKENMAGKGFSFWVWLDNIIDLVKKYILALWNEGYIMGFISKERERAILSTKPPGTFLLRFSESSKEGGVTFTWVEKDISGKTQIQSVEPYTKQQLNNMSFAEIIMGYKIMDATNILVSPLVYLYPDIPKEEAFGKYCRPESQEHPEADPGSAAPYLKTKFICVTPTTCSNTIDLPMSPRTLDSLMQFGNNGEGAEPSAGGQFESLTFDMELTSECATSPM
Method: In such PPIs, the bulk of the binding energy contribution typically stems from backbone interactions, whereas binding specificity is fine-tuned by side-chain contacts. […] We evaluated the binding kinetics of peptides to full-length STAT3 using GCI.
as §1, §2, §3
GCI sensorgrams depicting RAPID kinetics measurements and fitted kinetic models for peptide binding to full-length STAT3 immobilised on a polycarboxylate hydrogel chip (4PCH). Peptides were applied at 0.5 or 10 μM concentration using the medium or tight binders pulse sequence. The peptides that show negligible Rmax values at 10 μM analyte concentration were classified as non-binding.
(1 picture or pasted object on this page, not shown here)

[4] = replicate 1 (first listed run, Table S2)
[5] = replicate 2 (second listed run, Table S2)
[6] = replicate 3 (third listed run, Table S2)
[7] = PBST pH 7.4 (NaPi, 150 mM NaCl, 0.01% Tween-20), average of 2–3 technical replicates, read-out: KD (ITC, summary Fig 2B)
[8] = TBST pH 8.0, average of 2–3 technical replicates, read-out: KD (ITC, summary Fig 2B)

SMILES | Kd (STAT1 [1]) | kon at 0.5 µM (STAT1 [1]; [4]) | kon at 0.5 µM (STAT1 [1]; [5]) | kon at 0.5 µM (STAT1 [1]; [6]) | Kd (STAT1 [2]; [7]) | Kd (STAT1 [2]; [8]) | IC50 (STAT1 [3]) | ka (STAT3) | Kd (STAT3; full-length STAT3 on 4PCH chip, average of technical replicates ± SD (Fig 3E), SD, read-out: STAT3 KD (GCI waveRAPID)) | kon (STAT3; read-out: ka) | Kd (STAT1 [2]; TBST (50 mM Tris pH 8.0, 300 mM NaCl, 0.01% Tween-20), 25°C, 1:1 model, average of three technical replicates ± SD (text and Fig 2A), SD, read-out: KD (ITC))
CC[C@H](C)[C@@H]1NC(=O)[C@@H](NC(=O)[C@@H](NC(=O)[C@H](CO)NC(=O)[C@H](Cc2c[nH]c3ccccc23)NC(=O)[C@H](CCSC)NC(C)=O)C(C)C)CSCc2ccccc2CSC[C@@H](C(=O)N[C@@H](CCCCN)C(=O)N[C@H](C(=O)N[C@@H](Cc2ccc(O)cc2)C(=O)N[C@H](C(N)=O)[C@@H](C)O)[C@@H](C)O)NC(=O)CNC(=O)[C@H](CCCCN)NC(=O)[C@H](CC(N)=O)NC(=O)[C@H](CO)NC(=O)CNC(=O)[C@H](CC(=O)O)NC(=O)[C@H](Cc2c[nH]cn2)NC(=O)CNC(=O)[C@H](Cc2c[nH]cn2)NC1=O [Peptide 9] (Ac-MWSVCIHGHDGSNKGCKTYT-NH2; linker 5-16 via oXylylene) | 1.5 ± 0.1 nM | 587000 M⁻¹ s⁻¹ | 570000 M⁻¹ s⁻¹ | 540000 M⁻¹ s⁻¹ |  |  |  |  |  |  | 
CC[C@H](C)[C@@H]1NC(=O)[C@H](CS)NC(=O)[C@H](C(C)C)NC(=O)[C@H](CO)NC(=O)[C@H](Cc2c[nH]c3ccccc23)NC(=O)[C@H](CCSC)NC(=O)CCNC(=O)CCNC(=O)[C@H]([C@@H](C)O)NC(=O)[C@H](Cc2ccc(O)cc2)NC(=O)[C@H]([C@@H](C)O)NC(=O)[C@H](CCCCN)NC(=O)[C@H](CS)NC(=O)CNC(=O)[C@H](CCCCN)NC(=O)[C@H](CC(N)=O)NC(=O)[C@H](CO)NC(=O)CNC(=O)[C@H](CC(=O)O)NC(=O)[C@H](Cc2c[nH]cn2)NC(=O)CNC(=O)[C@H](Cc2c[nH]cn2)NC1=O [Peptide 3] (cyclo(CIHGHDGSNKGCKTYT[βAla][βAla]MWSV)) | 7.5 ± 0.5 nM | 261000 M⁻¹ s⁻¹ | 276000 M⁻¹ s⁻¹ |  | 55 nM | 145 nM | 1300 nM | 83900 M⁻¹ s⁻¹ | 9300 ± 453 nM | 81000 M⁻¹ s⁻¹ | 
CSCC[C@@H]1NC(=O)CCNC(=O)CCNC(=O)[C@H]([C@@H](C)O)NC(=O)[C@H](Cc2ccc(O)cc2)NC(=O)[C@H]([C@@H](C)O)NC(=O)[C@H](CCCCN)NC(=O)[C@H](CO)NC(=O)[C@@H]2CSCc3ccccc3CSC[C@H](NC(=O)[C@H](Cc3ccccc3)NC(=O)[C@H](C(C)C)NC(=O)[C@H](CO)NC(=O)[C@H](Cc3c[nH]c4ccccc34)NC1=O)C(=O)N[C@@H](Cc1c[nH]cn1)C(=O)NCC(=O)N[C@@H](Cc1c[nH]cn1)C(=O)N[C@@H](CC(=O)O)C(=O)NCC(=O)N[C@@H](CO)C(=O)N[C@@H](CC(N)=O)C(=O)N[C@@H](CCCCN)C(=O)N2 [Peptide 8] (cyclo(CHGHDGSNKCSKTYT[βAla][βAla]MWSVF); linker 1-10 via oXylylene) | 75.4 ± 0.8 nM | 87000 M⁻¹ s⁻¹ | 80000 M⁻¹ s⁻¹ |  | 247 nM | 436 nM |  |  |  |  | 
CC[C@H](C)[C@@H]1NC(=O)[C@H](Cc2ccccc2)NC(=O)[C@H](C(C)C)NC(=O)[C@H](CO)NC(=O)[C@H](Cc2c[nH]c3ccccc23)NC(=O)[C@H](CCSC)NC(=O)CCNC(=O)CCNC(=O)[C@H]([C@@H](C)O)NC(=O)[C@H](Cc2ccc(O)cc2)NC(=O)[C@H]([C@@H](C)O)NC(=O)[C@H](CCCCN)NC(=O)[C@H](CO)NC(=O)CNC(=O)[C@H](CCCCN)NC(=O)[C@H](CC(N)=O)NC(=O)[C@H](CO)NC(=O)CNC(=O)[C@H](CC(=O)O)NC(=O)[C@H](Cc2c[nH]cn2)NC(=O)CNC(=O)[C@H](Cc2c[nH]cn2)NC1=O [Peptide 2] | 8.9 ± 1.9 nM | 216000 M⁻¹ s⁻¹ | 213000 M⁻¹ s⁻¹ | 321000 M⁻¹ s⁻¹ | 122 nM |  |  |  |  |  | 330 ± 20 nM
CSCC[C@@H]1NC(=O)CCNC(=O)CCNC(=O)[C@H]([C@@H](C)O)NC(=O)[C@H](Cc2ccc(O)cc2)NC(=O)[C@H]([C@@H](C)O)NC(=O)[C@H](CCCCN)NC(=O)[C@H](CO)NC(=O)[C@H](CS)NC(=O)[C@H](CCCCN)NC(=O)[C@H](CC(N)=O)NC(=O)[C@H](CO)NC(=O)CNC(=O)[C@H](CC(=O)O)NC(=O)[C@H](Cc2c[nH]cn2)NC(=O)CNC(=O)[C@H](Cc2c[nH]cn2)NC(=O)[C@H](CS)NC(=O)[C@H](Cc2ccccc2)NC(=O)[C@H](C(C)C)NC(=O)[C@H](CO)NC(=O)[C@H](Cc2c[nH]c3ccccc23)NC1=O [Peptide 7] (cyclo(CHGHDGSNKCSKTYT[βAla][βAla]MWSVF)) | 96.9 ± 4 nM | 129000 M⁻¹ s⁻¹ | 131000 M⁻¹ s⁻¹ | 137000 M⁻¹ s⁻¹ | 114 nM | 1930 nM |  |  |  |  | 

— publication PMC12813973, “Consequences of Peptide Macrocyclization Revealed by Virus-Inspired β‑Hairpin Mimetics” (ACS Chemical Biology, 2025)
